Here are results for 6 molecules from US8106035B2, “25-SO2-substituted analogs of 1μ,25-dihydroxyvitamin D3” (Cytochroma Inc., priority 2002, dated 2012).

Test [1] can be described thus: Antiproliferative activity of the compound of Formula VI (test not specified). Type of test: cell-based. Particulars: present invention. The source says: The preparation of the compound of Formula VI was previously reported (Wang, Q. PhD Thesis, 2000, Johns Hopkins University). The ability of the compound of Formula VI to selectively modulate CYP24 activity has not been reported. […] Accordingly, the present invention is the first to find that the compound of Formula VI is useful in the methods of the invention.

Test [2] deals with T1, CYP24 (Homo sapiens, UniProt Q07973).
T1 sequence (Q07973 36-514): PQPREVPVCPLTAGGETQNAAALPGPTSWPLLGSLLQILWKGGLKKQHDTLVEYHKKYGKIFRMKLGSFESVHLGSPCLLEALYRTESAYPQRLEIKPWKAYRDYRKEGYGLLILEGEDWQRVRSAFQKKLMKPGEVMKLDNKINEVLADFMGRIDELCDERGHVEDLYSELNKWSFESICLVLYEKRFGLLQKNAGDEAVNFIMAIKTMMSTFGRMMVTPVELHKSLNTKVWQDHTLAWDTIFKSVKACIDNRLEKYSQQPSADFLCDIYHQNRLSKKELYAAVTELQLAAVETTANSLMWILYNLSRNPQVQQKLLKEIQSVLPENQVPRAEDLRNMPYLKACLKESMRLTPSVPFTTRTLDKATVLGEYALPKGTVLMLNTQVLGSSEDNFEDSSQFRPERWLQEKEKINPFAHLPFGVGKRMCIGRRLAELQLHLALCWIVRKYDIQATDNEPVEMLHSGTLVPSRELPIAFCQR
The experiment in a line: In vitro test for selective inhibition of CYP24 (standard protocol, ketoconazole control). Type of test: biochemical. The note with it: in comparison to CYP27A1 and CYP27B1. As to the method:
Selectively inhibiting the cytochrome P450 enzymatic pathway, through which 1α,25-dihydroxyvitamin D3 is catabolized (mainly via C-24 hydroxylation), is one important way to prolong the lifetime of this hormone, or analogs thereof. Therefore, the compounds of Formula I were tested in vitro, using a standard protocol, for their ability to inhibit specifically CYP24, an enzyme responsible for 24-hydroxylation of 1α,25-dihydroxyvitamin D3. Antimycotic ketoconazole, a drug used clinically for chemotherapy of human prostate cancer (Trachtenberg, J. et al. J. Urol. 1984, J32, 61-63), was used as a control standard for inhibition of CYP24.

The test system of test [3] is normal human epidermal keratinocytes (NHEK). The experiment in a line: Human epidermal keratinocyte proliferation (HEK) assay, [3H]-thymidine. Type of test: cell-based. The note with it: together with calcitriol; 1, 10, 50 nM compound; three days. As to the method: NHEK were treated with specified concentrations of calcitriol and compound Va for three days. Cells were then incubated with [^3H]-thymidine for 18 h at 37° C. in a humidified atmosphere containing 5% CO2. Plates were harvested and radioactivity measured. Dose response curves in the absence of Va, 1 nM Va, 10 nM Va and 50 nM Va are shown.
Human Epidermal Keratinocyte Proliferation (HEK) Assay
• 1. HEK cell media • Supplement KGM media with additional reagents provided in the bullet kit as per supplier's instructions. • Add calcium chloride to final concentration of 0.3 mM. • 2. Calcitriol dilutions
(iii) Procedure: • 2. Cell culture • Thaw one vial of HEK cells containing at least 500 K, and divide into 5 25 cm^2 flasks with 5 ml HEK cell media. 24 h later, remove media and replenish with 5 ml fresh media. Change media again 48 h later. • 3. Preparation of cell suspension • On the day of the assay, wash the monolayer of HEK cells once with 1×PBS buffer (provided in reagent pack) and then trypsinize for 5 min at 37° C. Add trypsin neutralizing solution (provided in reagent pack). Collect cells into tube, centrifuge cells (500×g, 5 min) and resuspend in HEK cell media. Count cells and adjust density to 150,000 cells/ml. Dilute cells further 1:30 with HEK cell media. • 2. Cell plating • Add 150 μl of cell suspension to appropriately labelled wells of a 96-well plate. Incubate plate for 48 h at 37° C. in a humidified atmosphere containing 5% CO2 for adherence of cells to wells. • 3. Compound addition • Add 25 μl of calcitriol (10^−6 to 10^−11 M, final) and add 25 μl of substrate (10^−7 to 10^−10 M, final) and incubate for 32 hours at 37° C. in a humidified atmosphere containing 5% CO2. • 4. Cell harvesting and counting • Add 0.2 μCi/well of [^3H]-thymidine in 20 μl of HEK cell media to each well. Incubate plates for 18 h at 37° C. in a humidified atmosphere containing 5% CO2. Aspirate media and wash with 1×PBS. Trypsinize cells for 30 min at 37° C. in a humidified atmosphere containing 5% CO2. Harvest cells onto filter plates using Tomtec cell harvester as per manufacturer's instructions. Add 25 μl scintillation fluid per well. Measure radioactivity using a scintillation counter. All values were normalized for background. Results; See FIGS. 1-4

The test system of test [4] is SCC-25 cells. The experiment in a line: [3H]-thymidine proliferation assay with SCC-25 cells. Type of test: cell-based. The note with it: together with calcitriol; 1, 10, 50 nM compound; three days. As to the method: SCC-25 cells were treated with specified concentrations of calcitriol and compound Va for three days. Cells were then incubated with [^3H]-thymidine for 6 h at 37° C. in a humidified atmosphere containing 5% CO2. Plates were harvested and radioactivity measured. Dose response curves in the absence of Va, 1 nM Va, 10 nM Va and 50 nM Va are shown.
[^3H]-thymidine Proliferation Assay with SCC-25 Cells
• 1. Preparation of cell suspension • When SCC-25 cells are 70-80% confluent, aspirate media. Wash the cells with 1×PBS. Trypsinize with trypsin-EDTA from the plate, collect cells from the tissue culture flask, centrifuged (500×g, 5 min) and resuspended in media. • 2. Cell plating. • Count the cells and adjust the cell density to 10,000/ml. Add 200 μl per well in a 96 well plate. Incubate plate for 24 h at 37° C. in a humidified atmosphere plus 5% CO2. Aspirate used media and replace with 150 μl per well with media. • 3. Compound addition. • Add 25 μl of 1α,25(OH)2D3 (final concentration 10^−6 M, 10^−7 M, 10^−8 M, 10^−9 M, 10^−10 M, 10^−11 M) into each designated well. Add 25 μL of Substrate (final concentration 10^−7 M, 5×10^−8 M, 10^−8 M or 10^−9 M) into each designated well. Incubate plates for 3 days at 37° C. in a humidified atmosphere plus 5% CO2. • 4. ^3H-Thymidine incorporation. • Add ^3H-thymidine at 0.02 μCi per well and incubate at 37° C. in a humidified atmosphere plus 5% CO2 for 6 h. • 5. Plate Harvesting. • Aspirate all media and wash cells with 1×PBS. Trypsinize cells for 30 min at 37° C. in a humidified atmosphere plus 5% CO2. Harvest cells onto a 96 well filter plate (Millipore) using a Tomtec Cell Harvestor, according to manufacturers instructions. • 6. Scintillation Counting. • Add 25 μl of scintillation fluid per well. Count the plate using a scintillation counter. Results: See FIGS. 10-13.

Test [5] has as its system MCF-7 cells. The test is described as follows: [3H]-thymidine proliferation assay with MCF-7 cells. Type of test: cell-based. The note with it: together with calcitriol; 1, 10, 50 nM compound; three days. How it is done: MCF-7 cells were treated with specified concentrations of calcitriol and compound Va for three days. Cells were then incubated with [^3H]-thymidine for 6 h at 37° C. in a humidified atmosphere containing 5% CO2. Plates were harvested and radioactivity measured. Dose response curves in the absence of Va, 1 nM Va, 10 nM Va and 50 nM Va are shown.
[^3H]-thymidine Proliferation Assay with MCF-7 Cells
• 1. Preparation of cell suspension • When MCF-7 cells are 70-80% confluent, aspirate growth media. Wash the cells with 1×PBS. Trypsinize with trypsin-EDTA from the plate, collect cells from the tissue culture flask, centrifuged (500×g, 5 min) and resuspended in growth media. • 2. Cell plating. • Count the cells and adjust the cell density to 25, 000/ml. Add 200 μl per well in a 96 well plate. Incubate plate for 24 h at 37° C. in a humidified atmosphere plus 5% CO2. Aspirate used media and replace with […] per well with proliferation media. • 3. Substrate addition. • Add 25 μl of 1α,25(OH)2D3 (final concentration 10^−6 M, 10^−7 M, 10^−8 M, 10^−9 M, 10^−10 M, 10^−11 M) into each designated well. Add 25 μl of Substrate (final concentration 10^−7 M, 5×10^−8 M, 10^−8 M or 10^−9 M) into each designated well. Incubate plates for 3 days at 37° C. in a humidified atmosphere plus 5% CO2. • 4. ^3H-Thymidine incorporation. • Add ^3H-thymidine at 0.02 μCi per well and incubate at 37° C. in a humidified atmosphere plus 5% CO2 for 6 h. • 5. Plate Harvesting. • Aspirate all media and wash cells with 1×PBS. Trypsinize cells for 30 min at 37° C. in a humidified atmosphere plus 5% CO2. Harvest cells onto a 96 well filter plate (Millipore) using a Tomtec Cell Harvestor, according to manufacturers instructions. • 6. Scintillation Counting. • Add 25 μt of scintillation fluid per well. Count the plate using a scintillation counter. Results: See FIGS. 5-9.

With `C=C1/C(=C\C=C2/CCCC3(C)C(C(C)CCC4(S(=O)(=O)C(C)(C)C)CC4)=CCC23)CC(O)CC1O` (centres unmarked) [Formula VI], the antiproliferative activity result in test [1] was “does have antiproliferative activity”. Moreover, the “selective inhibition of CYP24 activity” value in test [2] is listed as “shows selective inhibition of CYP24 activity”.
With `C=C1/C(=C\C=C2/CCC[C@@]3(C)C2CC[C@@H]3[C@H](C)CCC2(S(=O)(=O)C(C)(C)C)CC2)C[C@@H](O)C[C@@H]1O` (some centres unmarked) [IIa], the “inhibition of NHEK ([3H]-thymidine incorporation)” value (“inhibition of NHEK” below) in test [3] is “act to inhibit normal human epidermal keratinocytes”. For the same molecule, in test [4], the “inhibition of SCC-25 cells ([3H]-thymidine incorporation)” value (“inhibition of SCC-25 cells” below) is reported as “act to inhibit SCC-25 cells”.
`C=C1/C(=C\C=C2/CCC[C@]3(C)C([C@H](C)CCC(C)(C)S(=O)(=O)C(C)(C)C)=CCC23)C[C@@H](O)C[C@@H]1O` (some centres unmarked) [IVa, 16-ene-24-dimethyl-25-SO2-TB1]: the “inhibition of MCF-7 cells ([3H]-thymidine incorporation)” value (“inhibition of MCF-7 cells” below) in test [5] is listed as “act to inhibit MCF-7 cells”. In addition, in test [3], the “inhibition of NHEK” value is on record as “act to inhibit normal human epidermal keratinocytes”. Also, the “inhibition of SCC-25 cells” value in test [4] is listed as “act to inhibit SCC-25 cells”.
On to `C[C@H](C/C=C(\F)S(=O)(=O)C(C)(C)C)C1=CC[C@H]2/C(=C/C=C3C[C@@H](O)C[C@H](O)C3)CCC[C@]12C` [Ia(xi)], for which, in test [5], the “inhibition of MCF-7 cells” value is recorded as “act to inhibit MCF-7 cells”.
Take `C=C1/C(=C\C=C2/CCC[C@]3(C)C([C@H](C)C/C=C(/F)S(=O)(=O)C(C)(C)C)=CC[C@@H]23)C[C@@H](O)C[C@@H]1O` [Ib(v)]: the “inhibition of MCF-7 cells” value in test [5] is reported as “act to inhibit MCF-7 cells”. The “inhibition of NHEK” value in test [3] is on record as “act to inhibit normal human epidermal keratinocytes”. Further, in test [4], the “inhibition of SCC-25 cells” value is “act to inhibit SCC-25 cells”.
For `C=C1/C(=C\C=C2/CCC[C@]3(C)[C@@H]([C@H](C)CCCS(=O)(=O)c4ccc(F)cc4)CC[C@@H]23)C[C@@H](O)C[C@@H]1O` [Va], in that order: “act to inhibit MCF-7 cells”, “act to inhibit normal human epidermal keratinocytes” and “act to inhibit SCC-25 cells”.
